According to article PMC9516332 (Frontiers in Oncology, 2022):
Where two headings read alike, the source gives them in different places.

Tests used:
134 cancer cell lines [1] = experiment: Cell viability assay (ATPlite, 72 hours), IC50 on cancer cell line panel
134 cancer cell lines [2] = system: 134 cancer cell lines
AP-1060 (ETV6-NTRK3) = experiment: Cell viability assay; conditions: read-out: IC50 in cell proliferation assay

Compound `O=C(c1ccc(F)c(F)c1Nc1ccc(I)cc1F)N1CC(O)([C@@H]2CCCCN2)C1` [cobimetinib] has an IC50 (134 cancer cell lines [1]; Homo sapiens, MeWo, read-out: IC50 in cell proliferation assay, MeWo cell line) of 330 nM, an IC50 (134 cancer cell lines [1]; Homo sapiens, NCCIT, read-out: IC50 in cell proliferation assay, NCC-IT cell line) of 1290 nM and an IC50 (134 cancer cell lines [1]; Homo sapiens, NCI-H82, read-out: IC50 in cell proliferation assay, cell line NCI-H82) of 8220 nM. The IC50 (134 cancer cell lines [1]; Homo sapiens, NCI-H460, read-out: IC50 in cell proliferation assay, NCI-H460 cell line) was 77 nM, the IC50 (134 cancer cell lines [1]; Homo sapiens, NCI-H661, read-out: IC50 in cell proliferation assay, NCI-H661 cell line) was over 10000 nM and the IC50 (134 cancer cell lines [1]; Homo sapiens, NCI-H716, read-out: IC50 in cell proliferation assay, cell line NCI-H716 (FGFR2-COL14A1)) was 921 nM. For the same compound, the IC50 (134 cancer cell lines [1]; Homo sapiens, NCI-H1650, read-out: IC50 in cell proliferation assay, NCI-H1650 cell line (EGFR exon19del)) was 527 nM, the IC50 (134 cancer cell lines [1]; Homo sapiens, NCI-H1975, read-out: IC50 in cell proliferation assay, NCI-H1975 cell line (EGFR p.L858R + p.T790M)) was 98 nM and the IC50 (134 cancer cell lines [1]; Homo sapiens, NCI-H2228, read-out: IC50 in cell proliferation assay, NCI-H2228 cell line (EML4-ALK)) was 721 nM. For the same compound, the IC50 (134 cancer cell lines [1]; Homo sapiens, OVCAR-3, read-out: IC50 in cell proliferation assay, cell line OVCAR-3) was over 10000 nM, the IC50 (134 cancer cell lines [1]; Homo sapiens, PFSK-1, read-out: IC50 in cell proliferation assay, cell line PFSK-1) was over 10000 nM and the IC50 (134 cancer cell lines [1]; Homo sapiens, RL95-2, read-out: IC50 in cell proliferation assay, cell line RL95-2 (EGFR p.A289V)) was 34 nM. The IC50 (134 cancer cell lines [1]; Homo sapiens, RPMI-7951, read-out: IC50 in cell proliferation assay, cell line RPMI-7951 (BRAF p.V600E)) was 20 nM, the IC50 (134 cancer cell lines [1]; Homo sapiens, RS4-11, read-out: IC50 in cell proliferation assay, cell line RS4;11) was over 10000 nM and the IC50 (134 cancer cell lines [1]; Homo sapiens, Rec1, read-out: IC50 in cell proliferation assay, cell line REC-1) was 6390 nM. The IC50 (134 cancer cell lines [1]; Homo sapiens, SHP77, read-out: IC50 in cell proliferation assay, cell line SHP-77) was over 10000 nM, the IC50 (134 cancer cell lines [1]; Homo sapiens, SK-BR-3, read-out: IC50 in cell proliferation assay, cell line SK-BR-3 (ERBB2 amplification)) was over 10000 nM and the IC50 (134 cancer cell lines [1]; Homo sapiens, SK-N-AS, read-out: IC50 in cell proliferation assay, cell line SK-N-AS) was 12 nM. For the same compound, the IC50 (134 cancer cell lines [1]; Homo sapiens, SK-N-FI, read-out: IC50 in cell proliferation assay, cell line SK-N-FI) was 82 nM, the IC50 (134 cancer cell lines [1]; Homo sapiens, SK-N-MC, read-out: IC50 in cell proliferation assay, cell line SK-N-MC) was 7630 nM and the IC50 (134 cancer cell lines [1]; Homo sapiens, SK-N-SH, read-out: IC50 in cell proliferation assay, cell line SK-N-SH (ALK p.F1174L)) was 37 nM. The IC50 (134 cancer cell lines [1]; Homo sapiens, SNU-5, read-out: IC50 in cell proliferation assay, cell line SNU-5 (MET amplification)) was 47 nM, the IC50 (134 cancer cell lines [1]; Homo sapiens, SNU-16, read-out: IC50 in cell proliferation assay, cell line SNU-16 (FGFR2 amplification)) was 2490 nM and the IC50 (134 cancer cell lines [1]; Homo sapiens, SNU-C2B, read-out: IC50 in cell proliferation assay, cell line SNU-C2B (EGFR p.R165Q)) was 324 nM. It also gave an IC50 (134 cancer cell lines [1]; Homo sapiens, SU-DHL-1, read-out: IC50 in cell proliferation assay, cell line SU-DHL-1 (NPM1-ALK)) of 478 nM, an IC50 (134 cancer cell lines [1]; Homo sapiens, SU-DHL-6, read-out: IC50 in cell proliferation assay, cell line SU-DHL-6) of 2020 nM and an IC50 (134 cancer cell lines [1]; Homo sapiens, SUP-T1, read-out: IC50 in cell proliferation assay, cell line SUP-T1) of over 10000 nM. The IC50 (134 cancer cell lines [1]; Homo sapiens, SW48, read-out: IC50 in cell proliferation assay, cell line SW48 (EGFR p.G719S)) was 59 nM, the IC50 (134 cancer cell lines [1]; Homo sapiens, SW480, read-out: IC50 in cell proliferation assay, cell line SW480) was 342 nM and the IC50 (134 cancer cell lines [1]; Homo sapiens, SW626, read-out: IC50 in cell proliferation assay, cell line SW626) was 146 nM. For the same compound, the IC50 (134 cancer cell lines [1]; Homo sapiens, SW780, read-out: IC50 in cell proliferation assay, cell line SW780 (FGFR3-BAIAP2L1)) was 127 nM, the IC50 (134 cancer cell lines [1]; Homo sapiens, SW837, read-out: IC50 in cell proliferation assay, cell line SW837) was 137 nM and the IC50 (134 cancer cell lines [1]; Homo sapiens, SW872, read-out: IC50 in cell proliferation assay, cell line SW872 (BRAF p.V600E)) was 46 nM. For the same compound, the IC50 (134 cancer cell lines [1]; Homo sapiens, SW900, read-out: IC50 in cell proliferation assay, cell line SW900) was 295 nM, the IC50 (134 cancer cell lines [1]; Homo sapiens, SW948, read-out: IC50 in cell proliferation assay, cell line SW948) was 87 nM and the IC50 (134 cancer cell lines [1]; Homo sapiens, SW982, read-out: IC50 in cell proliferation assay, cell line SW982 (BRAF p.V600E)) was 1700 nM. The IC50 (134 cancer cell lines [1]; Homo sapiens, SW-620, read-out: IC50 in cell proliferation assay, cell line SW620) was 93 nM, the IC50 (134 cancer cell lines [1]; Homo sapiens, T98G, read-out: IC50 in cell proliferation assay, cell line T98G) was 3340 nM and the IC50 (134 cancer cell lines [1]; Homo sapiens, TCC-SUP, read-out: IC50 in cell proliferation assay, cell line TCCSUP) was 483 nM. It also gave an IC50 (134 cancer cell lines [1]; Homo sapiens, THP-1, read-out: IC50 in cell proliferation assay, cell line THP-1) of 20 nM, an IC50 (134 cancer cell lines [1]; Homo sapiens, U2OS, read-out: IC50 in cell proliferation assay, cell line U2OS) of 279 nM and an IC50 (134 cancer cell lines [1]; Homo sapiens, U-87 MG, read-out: IC50 in cell proliferation assay, cell line U-87MG ATCC) of 925 nM. For the same compound, the IC50 (134 cancer cell lines [1]; Homo sapiens, U-118-MG, read-out: IC50 in cell proliferation assay, cell line U-118MG) was 147 nM, the IC50 (134 cancer cell lines [1]; Homo sapiens, UMUC3, read-out: IC50 in cell proliferation assay, cell line UM-UC-3) was 43 nM and the IC50 (134 cancer cell lines [1]; Hs766T, read-out: IC50 in cell proliferation assay, Hs 766T cell line) was 6 nM. For the same compound, the IC50 (134 cancer cell lines [1]; L-82, read-out: IC50 in cell proliferation assay, L-82 cell line (NPM1-ALK)) was 250 nM, the IC50 (134 cancer cell lines [1]; Rh30, read-out: IC50 in cell proliferation assay, cell line Rh30) was 3410 nM and the IC50 (134 cancer cell lines [1]; read-out: IC50 in cell proliferation assay, 11-18 cell line (EGFR p.L858R)) was over 10000 nM. The IC50 (134 cancer cell lines [1]; read-out: IC50 in cell proliferation assay, Hs 852.T cell line) was 592 nM, the IC50 (134 cancer cell lines [1]; read-out: IC50 in cell proliferation assay, JAR cell line) was 6290 nM and the IC50 (134 cancer cell lines [1]; read-out: IC50 in cell proliferation assay, cell line 5637) was 452 nM. For the same compound, the IC50 (134 cancer cell lines [1]; read-out: IC50 in cell proliferation assay, cell line A-388) was 171 nM, the IC50 (134 cancer cell lines [1]; read-out: IC50 in cell proliferation assay, cell line DB) was 8690 nM and the IC50 (134 cancer cell lines [1]; read-out: IC50 in cell proliferation assay, cell line DEL (NPM1-ALK)) was 4200 nM. The IC50 (134 cancer cell lines [1]; read-out: IC50 in cell proliferation assay, cell line ES-2 (BRAF p.V600E)) was 32 nM, the IC50 (134 cancer cell lines [1]; read-out: IC50 in cell proliferation assay, cell line PA-1) was 496 nM and the IC50 (134 cancer cell lines [1]; read-out: IC50 in cell proliferation assay, cell line PC-3) was over 10000 nM. The IC50 (134 cancer cell lines [1]; read-out: IC50 in cell proliferation assay, cell line RD) was 92 nM, the IC50 (134 cancer cell lines [1]; read-out: IC50 in cell proliferation assay, cell line RKO (BRAF p.V600E)) was 38 nM and the IC50 (134 cancer cell lines [1]; read-out: IC50 in cell proliferation assay, cell line RL) was over 10000 nM. The IC50 (134 cancer cell lines [1]; read-out: IC50 in cell proliferation assay, cell line RT-4 (FGFR3-TACC3)) was 299 nM, the IC50 (134 cancer cell lines [1]; read-out: IC50 in cell proliferation assay, cell line SR (NPM1-ALK)) was 509 nM and the IC50 (134 cancer cell lines [1]; read-out: IC50 in cell proliferation assay, cell line T24) was 43 nM. It also gave an IC50 (134 cancer cell lines [1]; read-out: IC50 in cell proliferation assay, cell line TT (RET p.C634W)) of 225 nM, an IC50 (134 cancer cell lines [1]; read-out: IC50 in cell proliferation assay, cell line VA-ES-BJ) of 4580 nM and an IC50 (134 cancer cell lines [2]) of 56 nM. It also gave an IC50 (AP-1060 (ETV6-NTRK3)) of 7330 nM.
